For one data set, the system named is human hepatoma G2 cells. The data set is described as follows: Cytotoxicity assay (XTT colorimetric), Hep G2. It is filed as cell-based.
For another data set, the system named is rat glioma C6 cells. Nature of the data set: Cytotoxicity assay (XTT colorimetric), C6 cells. In kind it is cell-based. (In general: Formazan colour is commonly taken as a measure of viable cells.)
Data set [1] concerns hepatitis B virus transfected hepatoma cell lines, HepG 2.2.15 cells. The data set is described as follows: Cytotoxicity assay, 2.2.15 cells. In kind it is cell-based, human.
Data set [2] deals with transcriptional activity of hTERT. Nature of the data set: SEAP reporter assay of hTERT expression, PhTERT-SEAP (hTERT-BJ1). The following applies: Homo sapiens, hTERT-BJ1, read-out: Relative SEAP activity (%). In kind it is cell-based, human. The procedure: (§1) Secreted alkaine phosphatase was used as the reporter system to monitor the transcriptional activity of hTERT. Here, about […] each were grown in 96-well plates and incubated at 37° C. for 24 h and changed with fresh media. Varying amounts of drugs were added and cells were incubated for another 24 h. Culture media were collected and heated at 65° C. for 10 min to inactivate heat-labile phosphatases. An equal amount of SEAP buffer (2 M diethanolamine, 1 mM MgCl2, and 20 mM […]) was added to the media and p-nitrophenyl phosphate was added to a final concentration of 12 mM. Absorptions at 405 nm were taken, and the rate of absorption increase is determined.
(§2) Culture media were changed every 3 days. […] The stable clones were selected using G418.

For data set [3] the test system is unchanged. The data set is described as follows: SEAP reporter assay of hTERT expression, PhTERT-SEAP (H1299). It is filed as cell-based, human. The following applies: Homo sapiens, NCI-H1299, hTERT-H1299, read-out: Relative SEAP activity (%). The procedure: as §1, §2
Data set [4] can be described thus: MTT relative viability, PhTERT-SEAP (H1299) cells. Conditions: human.
A short description of data set [5]: MTT relative viability, PhTERT-SEAP (hTERT-BJ1) cells. The following applies: human.
Experimental: The tetrazolium reagent (MTT; 3-(4,5-di-methylthiazol)-2,5-diphenyl tetrazolium bromide, USB) was designed to yield a colored formazan upon metabolic reduction by viable cells. Approximately […] cells were plated onto each well of a 96-well plate and incubated in 5% CO2 at 37° C. for 24 h. To assess the in vitro cytotoxicity, each compound was dissolved in DMSO and prepared immediately before the experiments and was diluted into the complete medium before addition to cell cultures. Test compounds were then added to the culture medium for designated various concentrations. After 48 h, an amount of 25 μL of MTT was added to each well, and the samples were incubated at 37° C. for 4 h. A 100 μL solution of lysis buffer containing 20% SDS and 50% N,N-dimethylformamide was added to each well and incubated at 37° C. for another 16 h. The absorbency at 550 nm was measured using an ELISA reader.
Non small lung cancer cells H1299 (telomerase positive) were grown in RPMI 1640 media supplemented with 10% fetal bovine serum, 100 units/mL penicillin and 100 mg/mL streptomycin in a humidified atmosphere with 5% CO2 at 37° C. The hTERT immortalized hTERT-BJ1 (BD Biosciences Clontech)^39 were grown in DMEM media supplemented with 10% fetal calf serum, 100 units/mL penicillin and 100 mg/mL streptomycin, 1 mM sodium pyruvate, and 4 mM I-arginine in a humidified atmosphere with 5% CO2 at 37° C. Culture media were changed every 3 days. […] The stable clones derived from H1299 or hTERT-BJ1 were cultured using conditions that are similar to their parental cells.
The mark [6] stands for this setting: Homo sapiens, HepG2, 48 h of drug exposure.
The mark [7] stands for this setting: Rattus norvegicus, C6, 48 h of drug exposure.
Where [8] appears, read: Homo sapiens, HepG2.2.15, 48 h of drug exposure.

Results on 23 compounds are retold here after patent publication US20050009924A1 (priority 2003, published 2005).

Structures are written as SMILES. Where two headings read alike, the source gives them in different places.

Broadly, the IC50 is the point on the concentration scale where inhibition reaches its midpoint. Read a high IC50 as weaker potency. A word on the viability: it is a read-out of living cells in per cent, often relative to untreated cells. Consider `CC(C)CNc1cccc2c1C(=O)c1cccc(NCC(C)C)c1C2=O`, for which the IC50 was 14.3 ± 1.54 µM in the data set on human hepatoma G2 cells (setting [6]), 12.7 ± 0.37 µM in the data set on rat glioma C6 cells (setting [7]) and above 20 µM in data set [1] (setting [8]). Besides, the activity at 2.8 µM in data set [2] was 22 ± 18.3%; in data set [3], 94 ± 7%. In addition, the activity at 28 µM is 22 ± 21.4% in data set [2] and 91 ± 2.5% in data set [3]. The activity at 285 µM in data set [2] turned out to be 29 ± 3.9%; in data set [3] it was 75 ± 4.1%. Also, the viability at 48 h, 2.8 µM in data set [4] was determined as 108 ± 4.8%; in data set [5] (hTERT-BJ1 cells) it was 110 ± 7.6%. The viability at 48 h, 28 µM is 106 ± 3.7% in data set [4] and 103 ± 3% in data set [5] (hTERT-BJ1 cells). Further, the viability at 48 h, 285 µM came out at 80 ± 4.8% in data set [4] and 72 ± 3.3% in data set [5].
In the case of `NCCCNc1cccc2c1C(=O)c1cccc(NCCCN)c1C2=O`, the IC50 was 11.67 ± 0.09 µM with human hepatoma G2 cells (setting [6]), 12.18 ± 0.04 µM in the data set on rat glioma C6 cells (setting [7]) and 7.48 µM in data set [1] (setting [8]). Moreover, the activity at 2.8 µM in data set [2] turned out to be 103 ± 19.8%; in data set [3], 102 ± 4.9%. Further, the activity at 28 µM in data set [2] came to 47 ± 20.5%; in data set [3], 44 ± 7.5%. In addition, the activity at 283 µM amounted to 60 ± 15.1% in data set [2] (283 μM) and 38 ± 6% in data set [3] (283 μM). The viability at 48 h, 2.8 µM in data set [4] worked out at 85 ± 11.5%; in data set [5] (hTERT-BJ1 cells), 85 ± 6.9%. The viability at 48 h, 28 µM in data set [4] amounted to 32 ± 9.3%; in data set [5] (hTERT-BJ1 cells), 3 ± 6.9%. For the same compound, the viability at 48 h, 283 µM in data set [4] came out at 16 ± 2.1%.
In the case of `COc1cccc2c1C(=O)c1c(O)c3c(c(O)c1C2=O)C[C@@](O)(C(=O)CO)C[C@@H]3O[C@H]1C[C@H](N)[C@H](O)[C@H](C)O1` [Adriamycin, reference compound], the results for the concentration for half-maximal inhibition (IC50) (in the data set with human hepatoma G2 cells (setting [6]); in the data set on rat glioma C6 cells (setting [7]); in data set [1] (setting [8])) were 0.9 ± 0.01 µM, 1 µM and 1.6 µM, respectively.
`N.N.[Cl][Pt][Cl]` [Cisplatin, reference compound]: the 50% inhibitory concentration (IC50) in the data set on human hepatoma G2 cells (48 h of drug exposure) was 1.48 ± 0.62 µM; with rat glioma C6 cells (48 h of drug exposure), above 1 µM; in data set [1] (48 h of drug exposure), 2 ± 0.54 µM.
Regarding `CN(C)CCNc1cccc2c1C(=O)c1cccc(NCCN(C)C)c1C2=O` [IVd, 1,5-Bis(2-dimethylaminoethylamino)anthraquinone], the concentration for half-maximal inhibition (IC50) in the data set on human hepatoma G2 cells (setting [6]) turned out to be 0.09 ± 0.01 µM; with rat glioma C6 cells (setting [7]), 0.12 µM; in data set [1] (setting [8]) it was 0.13 µM. The values for the activity at 2.6 µM in data set [2] (2.6 μM) and in data set [3] (2.6 μM) were 11 ± 22.4% and 103 ± 6%, respectively. Further, the activity at 26 µM in data set [2] (26 μM) is -15%; in data set [3] (26 μM) it was 54 ± 5.9%. Moreover, the activity at 262 µM in data set [2] (262 μM) is -26%; in data set [3] (262 μM) it was 40 ± 5.9%. The viability at 48 h, 2.6 µM in data set [4] amounted to 107 ± 9.1%; in data set [5] (hTERT-BJ1 cells) it was 92 ± 4.8%. In addition, the figures for the viability at 48 h, 26 µM in data set [4] and in data set [5] (hTERT-BJ1 cells) were 81 ± 8.3% and 76 ± 5.9%, respectively. Also, the figures for the viability at 48 h, 262 µM in data set [4] and in data set [5] (hTERT-BJ1 cells) were 29 ± 2.6% and 7 ± 18.2%, respectively.
As for `CCCCNc1cccc2c1C(=O)c1cccc(NCCCC)c1C2=O` [IVj, 1,5-Bis(butylamino)anthraquinone], the half-inhibitory concentration (IC50) (with human hepatoma G2 cells (setting [6]); in the data set on rat glioma C6 cells (setting [7]); in data set [1] (setting [8])) was above 20 µM each time. Besides, the activity at 2.8 µM in data set [2] was found to be 98 ± 27.4%; in data set [3] it was 106 ± 7.1%. For the same compound, the activity at 28 µM in data set [2] worked out at 103 ± 27%; in data set [3], 105 ± 5.5%. Also, the activity at 285 µM in data set [2] came to 123 ± 22.9%; in data set [3] it was 98 ± 5.2%. For the same compound, the viability at 48 h, 2.8 µM in data set [4] was found to be 102 ± 7%; in data set [5] (hTERT-BJ1 cells), 109 ± 9.1%. In addition, the viability at 48 h, 28 µM in data set [4] is 104 ± 9.2%; in data set [5] (hTERT-BJ1 cells), 99 ± 5.9%. In addition, the viability at 48 h, 285 µM in data set [4] was found to be 81 ± 13.9%; in data set [5] it was 75 ± 5.9%.
Regarding `O=C1c2cccc(NC3CCCC3)c2C(=O)c2cccc(NC3CCCC3)c21` [IVo, 1,5-Bis(cyclopentaneamino)-anthraquinone], the IC50 (in the data set on human hepatoma G2 cells (48 h of drug exposure); in the data set on rat glioma C6 cells (48 h of drug exposure); in data set [1] (48 h of drug exposure)) was above 20 µM each time.
In the case of `O=C1c2cccc(Nc3ccc(O)cc3)c2C(=O)c2cccc(Nc3ccc(O)cc3)c21` [IVq, 1,5-Bis(phenolamino)-anthraquinone], the IC50 with human hepatoma G2 cells (48 h of drug exposure) is 4.2 ± 0.76 µM; in the data set on rat glioma C6 cells (48 h of drug exposure), 14.21 ± 0.08 µM; in data set [1] (48 h of drug exposure) it was above 20 µM.
For `CCNc1cccc2c1C(=O)c1c(NCC)cccc1C2=O` [Va, 1,8-Bis(ethylamine)-anthraquinone], the half-inhibitory concentration (IC50) (in the data set with human hepatoma G2 cells (48 h of drug exposure); in the data set with rat glioma C6 cells (48 h of drug exposure); in data set [1] (48 h of drug exposure)) was above 20 µM each time.
For `CCCNc1cccc2c1C(=O)c1c(NCCC)cccc1C2=O` [Vb, 1,8-Bis(propylamine)-anthraquinone], the IC50 in the data set on human hepatoma G2 cells (48 h of drug exposure) was 0.19 µM; with rat glioma C6 cells (48 h of drug exposure), 0.61 ± 0.01 µM; in data set [1] (48 h of drug exposure) it was 1.06 µM.
As for `CCCCNc1cccc2c1C(=O)c1c(NCCCC)cccc1C2=O` [Vc], the IC50 (in the data set on human hepatoma G2 cells (48 h of drug exposure); in the data set on rat glioma C6 cells (48 h of drug exposure); in data set [1] (48 h of drug exposure)) was above 20 µM throughout.
With `CC(C)CNc1cccc2c1C(=O)c1c(NCC(C)C)cccc1C2=O` [Vd], the results for the half-inhibitory concentration (IC50) (in the data set with human hepatoma G2 cells (48 h of drug exposure); in the data set on rat glioma C6 cells (48 h of drug exposure); in data set [1] (48 h of drug exposure)) were above 20 µM, 1.32 ± 0.01 µM and above 20 µM, respectively.
Regarding `CCCCCCNc1cccc2c1C(=O)c1c(NCCCCCC)cccc1C2=O` [Ve], the 50% inhibitory concentration (IC50) (in the data set on human hepatoma G2 cells; in the data set on rat glioma C6 cells; in data set [1]) was above 20 µM in each case.
On to `CC(C)Nc1cccc2c1C(=O)c1c(NC(C)C)cccc1C2=O` [Vf, 1,8-Bis(isopropylamine)-anthraquinone], for which the IC50 is above 20 µM in the data set with human hepatoma G2 cells (48 h of drug exposure), 1.24 ± 0.01 µM in the data set with rat glioma C6 cells (48 h of drug exposure) and above 20 µM in data set [1] (48 h of drug exposure).
On to `O=C1c2cccc(NCCO)c2C(=O)c2c(NCCO)cccc21` [Vg], for which the IC50 with human hepatoma G2 cells was above 20 µM; with rat glioma C6 cells it was 0.02 ± 0.01 µM; in data set [1] it was above 20 µM.
Turning to `O=C1c2cccc(NCCCO)c2C(=O)c2c(NCCCO)cccc21` [Vh], the IC50 in the data set on human hepatoma G2 cells (48 h of drug exposure) was above 20 µM; in the data set on rat glioma C6 cells (48 h of drug exposure) it was 1 ± 0.01 µM; in data set [1] (48 h of drug exposure), above 20 µM.
Consider `O=C1c2cccc(NCCCCO)c2C(=O)c2c(NCCCCO)cccc21` [Vi], for which the IC50 in the data set on human hepatoma G2 cells (48 h of drug exposure) was 1.65 µM; in the data set with rat glioma C6 cells (48 h of drug exposure), 0.41 ± 0.02 µM; in data set [1] (48 h of drug exposure), above 20 µM.
Take `CN(C)CCNc1cccc2c1C(=O)c1c(NCCN(C)C)cccc1C2=O` [Vj]: the IC50 came out at 0.16 µM in the data set on human hepatoma G2 cells (48 h of drug exposure), 0.15 ± 0.04 µM in the data set with rat glioma C6 cells (48 h of drug exposure) and 8.55 µM in data set [1] (48 h of drug exposure).
For `NCCCNc1cccc2c1C(=O)c1c(NCCCN)cccc1C2=O` [Vk], the values for the IC50 (in the data set with human hepatoma G2 cells (48 h of drug exposure); in the data set on rat glioma C6 cells (48 h of drug exposure); in data set [1] (48 h of drug exposure)) were 11.4 ± 0.17 µM, above 20 µM and above 20 µM, respectively.
Regarding `NCCCCNc1cccc2c1C(=O)c1c(NCCCCN)cccc1C2=O` [Vl], the IC50 with human hepatoma G2 cells (48 h of drug exposure) is 11.5 ± 0.34 µM; in the data set on rat glioma C6 cells (48 h of drug exposure), above 20 µM; in data set [1] (48 h of drug exposure), above 20 µM.
In the case of `O=C1c2cccc(NC3CCCC3)c2C(=O)c2c(NC3CCCC3)cccc21` [Vn], the IC50 (in the data set with human hepatoma G2 cells (48 h of drug exposure); in the data set on rat glioma C6 cells (48 h of drug exposure); in data set [1] (48 h of drug exposure)) was above 20 µM each time.
Regarding `O=C1c2cccc(NCc3ccccc3)c2C(=O)c2c(NCc3ccccc3)cccc21` [Vo], the concentration for half-maximal inhibition (IC50) in the data set on human hepatoma G2 cells (48 h of drug exposure) is above 20 µM; in the data set on rat glioma C6 cells (48 h of drug exposure), 1.66 ± 0.09 µM; in data set [1] (48 h of drug exposure), above 20 µM.
With `O=C1c2cccc(NCCc3ccccc3)c2C(=O)c2c(NCCc3ccccc3)cccc21` [Vp], the IC50 (in the data set with human hepatoma G2 cells (48 h of drug exposure); in the data set with rat glioma C6 cells (48 h of drug exposure); in data set [1] (48 h of drug exposure)) was above 20 µM in each case.
